Measured values as given in patent US20230382910A1, “HETEROARYL COMPOUNDS FOR THE TREATMENT OF PAIN” (VERTEX PHARMACEUTICALS INCORPORATED, priority 2022, published 2023).

biological target: human NaV 1.8 (Homo sapiens, UniProt Q9Y5Y9); assay: E-VIPR Assay Detecting and Measuring NaV Inhibition Properties; assay type: cell-based; details: HEK cells expressing a truncated form of human NaV 1.8; electrical stimulation, membrane potential FRET dyes; read-out: measured IC50 value in the E-VIPR Assay
Sequence (Q9Y5Y9 126-399 limits assumed): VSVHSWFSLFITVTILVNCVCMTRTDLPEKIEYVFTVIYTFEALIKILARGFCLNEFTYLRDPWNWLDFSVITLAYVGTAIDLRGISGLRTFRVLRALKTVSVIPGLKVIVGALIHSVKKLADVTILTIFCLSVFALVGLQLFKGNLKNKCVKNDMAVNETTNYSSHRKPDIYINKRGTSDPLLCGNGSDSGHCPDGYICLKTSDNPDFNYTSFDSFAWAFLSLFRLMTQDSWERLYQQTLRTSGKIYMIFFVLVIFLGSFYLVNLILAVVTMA
Sequence (Q9Y5Y9 660-890 limits assumed): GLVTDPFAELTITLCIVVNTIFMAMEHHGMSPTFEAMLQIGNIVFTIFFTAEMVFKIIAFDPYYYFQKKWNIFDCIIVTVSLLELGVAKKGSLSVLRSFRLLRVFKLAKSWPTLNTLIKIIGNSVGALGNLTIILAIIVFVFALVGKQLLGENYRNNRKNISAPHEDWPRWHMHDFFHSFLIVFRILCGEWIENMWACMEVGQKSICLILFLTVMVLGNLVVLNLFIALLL
Sequence (Q9Y5Y9 1148-1722 limits assumed): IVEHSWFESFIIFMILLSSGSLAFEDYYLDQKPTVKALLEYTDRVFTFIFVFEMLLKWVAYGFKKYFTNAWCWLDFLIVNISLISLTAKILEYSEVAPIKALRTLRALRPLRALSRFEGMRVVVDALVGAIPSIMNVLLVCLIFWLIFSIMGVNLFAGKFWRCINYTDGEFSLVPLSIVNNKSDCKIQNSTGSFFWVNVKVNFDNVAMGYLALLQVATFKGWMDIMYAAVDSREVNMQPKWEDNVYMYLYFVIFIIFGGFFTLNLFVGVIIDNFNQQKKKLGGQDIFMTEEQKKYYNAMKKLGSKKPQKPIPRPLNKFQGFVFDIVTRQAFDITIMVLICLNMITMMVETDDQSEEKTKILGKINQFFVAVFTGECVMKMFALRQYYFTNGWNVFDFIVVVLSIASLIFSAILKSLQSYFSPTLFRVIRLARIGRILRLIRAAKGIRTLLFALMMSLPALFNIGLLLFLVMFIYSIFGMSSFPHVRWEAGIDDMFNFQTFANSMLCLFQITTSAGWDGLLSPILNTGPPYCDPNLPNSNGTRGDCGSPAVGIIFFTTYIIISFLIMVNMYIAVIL
Text: E-VIPR Assay Detecting and Measuring NaV Inhibition Properties
Sodium ion channels are voltage-dependent proteins that can be activated by inducing membrane voltage changes by applying electric fields. The electrical stimulation instrument and methods of use, referred to as E-VIPR, are described in International Publication No. WO 2002/008748 A3 and C.-J. Huang et al. Characterization of voltage-gated sodium channel blockers by electrical stimulation and fluorescence detection of membrane potential, 24 Nature Biotech. 439-46 (2006), both of which are incorporated by reference in their entirety. The instrument comprises a microtiter plate handler, an optical system for exciting the coumarin dye while simultaneously recording the coumarin and oxonol emissions, a waveform generator, a current- or voltage-controlled amplifier, and parallel electrode pairs that are inserted into assay plate wells. Under integrated computer control, this instrument passes user-programmed electrical stimulus protocols to cells within the wells of the microtiter plate.
16-20 hours prior to running the assay on E-VIPR, HEK cells expressing a truncated form of human NaV 1.8 with full channel activity were seeded into microtiter 384-well plates, pre-coated with matrigel, at a density of 25,000 cells per well. 2.5-5% KIR2.1 BacMam virus was added to the final cell suspension before seeding into cell plates. HEK cells were grown in Dulbecco's Modified Eagle's Medium (DMEM) supplemented with 10% FBS (Fetal Bovine Serum, qualified; Sigma #F4135), 1% NEAA (Non-Essential Amino Acids, Gibco #11140), 1% HEPES (Gibco #15630), 1% Pen-Strep (Penicillin-Streptomycin; Gibco #15140) and 5 μg/ml Blasticidin (Gibco #R210-01). Cells were expanded in 5-layer CellSTACK culture chambers or cell culture flasks with vented caps, with 90-95% humidity and 5% CO2.
Compound Loading Buffer (2× concentration): Na/TMA Cl Bath1 Buffer containing HS (omitted in experiments run in the absence of human serum (HS)) 50%, VABSC-1 1 mM, BSA 0.2 mg/ml (in Bath-1), KCl 9 mM, DMSO 0.625%.
Assay Protocol (7 Key Steps):
1) To reach the final concentration in each well, 375 nL of each compound was pre-spotted (in neat DMSO) into polypropylene compound plates at 240× desired final concentration from an intermediate stock concentration of 0.075 mM, in an 11-point dose response, 3-fold dilution, resulting in a top dose of 300 nM final concentration in the cell plate. Vehicle control (neat DMSO), and positive control (an established NaV1.8 inhibitor, 25 μM final in assay in DMSO) were added manually to the outermost columns of each plate respectively. The compound plate was backfilled with 45 μL per well of Compound Loading Buffer resulting in a 240-fold dilution of compound following a 1:1 transfer of compound into the cell plate (see Step 6). Final DMSO concentration for all wells in the assay was 0.625% (0.75% DMSO was supplemented to the Compound Loading Buffer for a final DMSO concentration of 0.625%). This assay dilution protocol was adjusted to enable a higher dose range to be tested in the presence of HS or if the final assay volume was altered.
2) Hexyl Dye Solution was prepared.
3) Cell plates were prepared. On the day of the assay, the media was aspirated, and the cells were washed three times with 80 μL of Bath-1 buffer, maintaining 25 μL residual volume in each well.
4) 25 μL per well of Hexyl Dye Solution was dispensed into the cell plates. The cells were incubated for 20 minutes at room temperature or ambient conditions in darkness.
5) 45 μL per well of Compound Loading Buffer was dispensed into compound plates.
6) The cell plates were washed three times with 80 μL per well of Bath-1 Buffer, leaving 25 µL of residual volume. Then 25 μL per well from compound plate was transferred to each cell plate. The mixture was incubated for 30 minutes at room temperature/ambient conditions. […]

Row | IC50 | SMILES
1 | 500 to 2000 nM | Cc1nc(C(C)(C)C)c(C)nc1-c1cc(=O)c2c(C(N)=O)nccc2[nH]1 [Compound 246, 2-(5-tert-butyl-3,6-dimethyl-pyrazin-2-yl)-4-oxo-1H-1,6-naphthyridine-5-carboxamide]
2 | 500 to 2000 nM | CC(C)(C)c1cc(F)c(-c2cc(O)c3c(C(N)=O)nccc3n2)c(F)c1 [Compound 247, 2-(4-(tert-butyl)-2,6-difluorophenyl)-4-hydroxy-1,6-naphthyridine-5-carboxamide]
3 | 500 to 2000 nM | Cc1nc(-c2ccccc2)c(Cl)cc1-c1cc(=O)c2c(C(N)=O)nccc2[nH]1 [Compound 273, 2-(5-chloro-2-methyl-6-phenyl-3-pyridyl)-4-oxo-1H-1,6-naphthyridine-5-carboxamide]
4 | 500 to 2000 nM | Cc1nc(C2(C)CC2)c(Cl)cc1-c1cc(=O)c2c(C(N)=O)nccc2[nH]1 [Compound 286, 2-[5-chloro-2-methyl-6-(1-methylcyclopropyl)-3-pyridyl]-4-oxo-1H-1,6-naphthyridine-5-carboxamide]
5 | 2000 to 5000 nM | Cc1nc(C(C)(C)CO)c(Cl)cc1-c1cc(=O)c2c(C(N)=O)nccc2[nH]1 [Compound 297, 2-[5-chloro-6-(2-hydroxy-1,1-dimethyl-ethyl)-2-methyl-3-pyridyl]-4-oxo-1H-1,6-naphthyridine-5-carboxamide]
6 | 500 to 2000 nM | Cc1cc(C(C)(C)C)ccc1-c1cc(=O)c2nc(OCCN(C)C)ccc2[nH]1 [Compound 304, 2-(4-tert-butyl-2-methyl-phenyl)-6-[2-(dimethylamino)ethoxy]-1H-1,5-naphthyridin-4-one]
7 | 500 to 2000 nM | COc1cc(C(C)C)cc(C)c1-c1cc(=O)c2ccccc2[nH]1 [Compound 337, 2-(4-isopropyl-2-methoxy-6-methyl-phenyl)-1H-quinolin-4-one]
8 | 2000 to 5000 nM | CC(C)(C)c1ccc(-c2cc(=O)c3cnccc3[nH]2)c(CCCO)c1 [Compound 346, 2-[4-tert-butyl-2-(3-hydroxypropyl)phenyl]-1H-1,6-naphthyridin-4-one]
9 | 2000 to 5000 nM | CC(C)(C)c1ccc(-c2[nH]c3ccncc3c(=O)c2Br)c(CCCO)c1 [Compound 347, 3-bromo-2-[4-tert-butyl-2-(3-hydroxypropyl)phenyl]-1H-1,6-naphthyridin-4-one]
10 | 2000 to 5000 nM | CC(C)CN(CC(C)C)c1nc2ccccc2cc1-c1cc(=O)c2c(C(N)=O)nccc2[nH]1 [Compound 351, 2-[2-(diisobutylamino)-3-quinolyl]-4-oxo-1H-1,6-naphthyridine-5-carboxamide]
11 | 2000 to 5000 nM | CCCN(CCC)c1nc2ccccc2cc1-c1cc(=O)c2c(C(N)=O)nccc2[nH]1 [Compound 352, 2-[2-(dipropylamino)-3-quinolyl]-4-oxo-1H-1,6-naphthyridine-5-carboxamide]
12 | 500 to 2000 nM | CCCCN(CC)c1nc2ccccc2cc1-c1cc(=O)c2c(C(N)=O)nccc2[nH]1 [Compound 353, 2-[2-[butyl(ethyl)amino]-3-quinolyl]-4-oxo-1H-1,6-naphthyridine-5-carboxamide]
13 | 2000 to 5000 nM | Cc1cc(C(C)(C)CO)c(Cl)cc1-c1cc(=O)c2c(C(N)=O)nccc2[nH]1 [Compound 356, 2-[5-chloro-4-(2-hydroxy-1,1-dimethyl-ethyl)-2-methyl-phenyl]-4-oxo-1H-1,6-naphthyridine-5-carboxamide]
14 | 2000 to 5000 nM | Cc1nc(C(C)(C)C(=O)O)c(Cl)cc1-c1cc(=O)c2c(C(N)=O)nccc2[nH]1 [Compound 359, 2-[5-(5-carbamoyl-4-oxo-1H-1,6-naphthyridin-2-yl)-3-chloro-6-methyl-2-pyridyl]-2-methyl-propanoic acid]
15 | 500 to 2000 nM | CCOC(=O)c1nc(C)c(-c2nccc3[nH]c(-c4cc(Cl)c(C(C)(C)C)cc4C)cc(=O)c23)o1 [Compound 390, ethyl 5-[2-(4-tert-butyl-5-chloro-2-methyl-phenyl)-4-oxo-1H-1,6-naphthyridin-5-yl]-4-methyl-oxazole-2-carboxylate]
16 | 500 to 2000 nM | Cn1nc(C(C)(C)C)cc1-c1cc(=O)c2cc(F)ccc2[nH]1 [Compound 417, 2-(5-tert-butyl-2-methyl-pyrazol-3-yl)-6-fluoro-1H-quinolin-4-one]
17 | 2000 to 5000 nM | [2H]C([2H])([2H])C(c1cc(C)c(-c2cc(=O)c3c(C(N)=O)nccc3[nH]2)cc1Cl)(C([2H])([2H])[2H])C([2H])([2H])O [Compound 427, 2-(5-chloro-4-(1-hydroxy-2-(methyl-d3)propan-2-yl-1,1,3,3,3-d5)-2-methylphenyl)-4-oxo-1,4-dihydro-1,6-naphthyridine-5-carboxamide]
